Assay results: patent US11254696B2, “Dianilinopyrimidine compound for inhibiting kinase activity” (Shenzhen Targetrx, Inc., priority 2017, dated 2022)

Assays:
ALK [WT] = ALK [WT] (Homo sapiens, UniProt Q9UM73); assay: Kinase inhibition assay, ALK [WT]; assay type: biochemical
Description: (§1) Compound preparation: The test compounds were dissolved in DMSO to make 20 mM stock solutions. The compounds were diluted in DMSO to 0.1 mM (a dilution with 100 times the final concentration) before use, and a 3-fold series gradient dilution with 11 concentrations was made. Dilutions with 4 times of the final concentration were prepared by diluting with buffer when dosing.
(§2) Kinase assay: after preparing the buffer solution, the enzyme was mixed with pre-diluted compounds with different concentrations, and placed at room temperature for 30 minutes in duplicate. The corresponding substrate and ATP were added thereto and reacted at room temperature for 60 minutes (both a negative and a positive control were set). After the reaction, antibody was added for detection, and after incubation at room temperature for 60 minutes, Evnvision detection was carried out, and data was collected. Data was analyzed and fit according to XLfit5 software. IC50 was calculated by the following formula: (IC50=[(ABS test−ABS begin)/(ABS control−ABS begin)]×100).

ALK [L1196M] = ALK [L1196M] (Homo sapiens, UniProt Q9UM73, L1196M); assay: Kinase inhibition assay, ALK [L1196M]; assay type: biochemical
Description: as §1, §2

BaF3 parental = assay: Cytotoxicity test (CellTiter-Glo), BaF3 parental; assay type: cell-based; conditions: Mus musculus, 72 hours, read-out: IC50(nM) parental (Ba/F3)
Description: (§3) The in vitro anti-proliferative activity of the compounds of the present disclosure against three types of cells that are cultured in vitro was tested by CellTiter-Glo method.
(§4) Cell lines: BaF3 parental; BaF3 [EML4-ALK] (From WuXi PharmaTech) and BaF3 [EMF4-AFK F1196M] (From WuXi PharmaTech); wherein, BaF3 parental was cultured in RPMI1640 medium containing 10 ng/ml IL-3, 10% fetal bovine serum, 100 U/ml penicillin, and 100 μg/ml streptomycin, BaF3 [EMF4-AFK] and BaF3 [EMF4-AFK F1196M] were cultured in RPMI1640 medium containing 10% fetal bovine serum, 100 U/ml penicillin, and 100 μg/ml streptomycin.
(§5) Reagents and materials: RPMI-1640 (GIBCO, Cat. No. A10491-01); fetal bovine serum (GIBCO, Cat. No. 10099141); 0.25% trypsin-EDTA (GIBCO, Cat. No. 25200); penicillin-streptomycin, liquid (GIBCO, Cat. No. 15140-122); DMSO (Sigma, Cat. No. D2650); CellTiter-Glo Test Kit (Promega, Cat. No. G7572), and 96-well plate (Corning, Cat. No. 3365).
(§6) 1. The test compounds were dissolved in DMSO to make stock solutions and subjected to a series gradient dilution to give solutions with 10-fold working concentration.
(§7) 2. The cells in the logarithmic growth phase were diluted with the culture solution to adjust to the specific cell concentration, 90 μi of cell suspension was added to the 96-well plate to make the cell density reach the specified concentration. The plate was incubated in a incubator at 37° C., containing 5% carbon dioxide gas overnight.
(§8) 3. 10 μl drug solutions were added to each well of the 96-well plate inoculated with cells. 10 concentrations of the compounds were tested starting from the highest concentration of 20 μM with a 3-fold series gradient dilution in duplicate.
(§9) 4. After continuously cultured for 72 hours, the cells were detected by CellTiter-Glo for the cell viability. The dose-effect curve was made using GraphPad Prism software and IC50 was calculated.

BaF3 [EML4-ALK] [1] = molecular target: T1, BaF3 [EML4-ALK] (Homo sapiens, UniProt Q9UM73); assay: Cytotoxicity test (CellTiter-Glo), BaF3 [EML4-ALK]; assay type: cell-based; conditions: 72 hours, CellTiter-Glo; read-out: IC50(nM) ALK (Ba/F3)
T1 construct: IC50(nM) ALK (Ba/F3); other: 72 hours, CellTiter-Glo; BaF3 [EML4-ALK]; fused on or other part: Q9HC35 (Echinoderm microtubule-associated protein-like 4)
Description: as §3, §4, §5, §6, §7, §8, §9

BaF3 [EML4-ALK] [2] = assay: Cytotoxicity test (CellTiter-Glo), BaF3 [EML4-ALK]; assay type: cell-based; conditions: Ba/F3 cells
Description: as §3, §4, §5, §6, §7, §8, §9

ALK[L1196M] (Ba/F3) [3] = molecular target: T2, ALK[L1196M] (Ba/F3) (Homo sapiens, UniProt Q9UM73, L1196M, cells depend on it); assay: Cytotoxicity test (CellTiter-Glo), BaF3 EML4-ALK L1196M; assay type: cell-based; conditions: 72 hours, CellTiter-Glo; read-out: IC50(nM) ALK[L1196M] (Ba/F3)
T2 construct: IC50(nM) ALK[L1196M]; (Ba/F3); other: 72 hours, CellTiter-Glo; BaF3 [EMF4-AFK F1196M]; fused on or other part: Q9HC35 (Echinoderm microtubule-associated protein-like 4)
Description: as §3, §4, §5, §6, §7, §8, §9

ALK[L1196M] (Ba/F3) [4] = assay: as above; assay type: cell-based; conditions: Ba/F3 cells
Description: as §3, §4, §5, §6, §7, §8, §9

[5] = Metabolic stability in human liver microsomes; assay type: in vitro ADME; conditions: pH 7.4, 1 μM compound, 0.5 mg/mL protein; for microsomal CLint at 1 μM: read-out: CLint (uL/min/mg), Human liver microsome experiment; for half-life at 1 μM: read-out: t1/2 (min), Human liver microsome experiment
Description: (§10) Experiments in microsomes: Human liver microsomes: 0.5 mg/mL, Xenotech; Rat liver microsomes: 0.5 mg/mL, Xenotech; Coenzyme (NADPH/NADH): 1 mM, Sigma Life Science; Magnesium chloride: 5 mM, 100 mM phosphate buffer (pH 7.4).
(§11) Preparation of stock solution: Powder of the example compounds was accurately weighed and dissolved in DMSO to 5 mM. Preparation of phosphate buffer (100 mM, pH7.4): A pre-formulated 0.5M potassium dihydrogen phosphate (150 mL) was mixed with 0.5M dibasic potassium phosphate (700 mL). The pH of the mixture was adjusted to 7.4 with 0.5M dibasic potassium phosphate solution. The mixture was diluted 5-fold with ultrapure water before use, and magnesium chloride was added to obtain a phosphate buffer (100 mM) containing 100 mM potassium phosphate, 3.3 mM magnesium chloride, pH7.4. A NADPH regeneration system solution (containing 6.5 mM NADP, 16.5 mM G-6-P, 3 U/mL G-6-PD, 3.3 mM magnesium chloride) was prepared and placed on wet ice prior to use. Preparation of stop solution: acetonitrile solution containing 50 ng/mL propranolol hydrochloride and 200 ng/mL tolbutamide (internal standard). 25057.5 μL of phosphate buffer (pH 7.4) was taken into a 50 mL centrifuge tube, to which 812.5 μL human liver microsomes were added, and mixed to obtain a liver microsome dilution solution with a protein concentration of 0.625 mg/mL. 25057.5 μL of phosphate buffer (pH 7.4) was taken into a 50 mL centrifuge tube, to which 812.5 μL SD rat liver microsomes were added, and mixed to obtain a liver microsome dilution solution with a protein concentration of 0.625 mg/mL.
(§12) Incubation of the samples: The stock solution of the respective compound was respectively diluted to 0.25 mM with an aqueous solution containing 70% acetonitrile, and used as a working solution, ready for use. 398 μL of the dilution solution of human liver microsomes or rat liver microsome were added to a 96-well incubation plate (N=2), respectively, and 2 μL of 0.25 mM working solution was added and mixed.
(§13) Metabolic stability assay: 300 μL of pre-chilled stop solution was added to each well of a 96-well deep well plate and placed on ice as a stop plate. The 96 well incubation plate and NADPH regeneration system were placed in a 37° C. water bath box, shaken at 100 rpm and pre-incubated for 5 min. 80 μL of incubation solution was taken out from each well of the incubation plate and added to the stop plate, mixed, and replenished with 20 μL of NADPH regeneration system solution as a 0-min sample. 80 μL of NADPH regeneration system solution was added to each well of the incubation plate to start the reaction and start counting. […] Separately, 100 μL of the reaction solution was taken at 10, 30, and 90 min reaction, respectively, added to a stop plate, and vortexed for 3 minutes to terminate the reaction. The stop plate was centrifuged at 5000×g at 4° C. for 4 min. 100 μL of the supernatant was added to a 96-well plate to which 100 μL of distilled water was previously added, mixed, and analyzed by LC-MS/MS.
(§14) Data analysis: The peak areas of the corresponding compound and internal standard were detected by LC-MS/MS system, and the ratio of the peak area of the compound to the internal standard was calculated.

[6] = Metabolic stability in rat liver microsomes; assay type: in vitro ADME; conditions: SD, pH 7.4, 1 μM compound, 0.5 mg/mL protein; for microsomal CLint at 1 μM: read-out: CLint (uL/min/mg), Rat liver microsome experiment; for half-life at 1 μM: read-out: t1/2 (min), Rat liver microsome experiment
Description: as §10, §11, §12, §13, §14

T2 sequence (Q9UM73 whole entry L1196M, the tested form may be a part): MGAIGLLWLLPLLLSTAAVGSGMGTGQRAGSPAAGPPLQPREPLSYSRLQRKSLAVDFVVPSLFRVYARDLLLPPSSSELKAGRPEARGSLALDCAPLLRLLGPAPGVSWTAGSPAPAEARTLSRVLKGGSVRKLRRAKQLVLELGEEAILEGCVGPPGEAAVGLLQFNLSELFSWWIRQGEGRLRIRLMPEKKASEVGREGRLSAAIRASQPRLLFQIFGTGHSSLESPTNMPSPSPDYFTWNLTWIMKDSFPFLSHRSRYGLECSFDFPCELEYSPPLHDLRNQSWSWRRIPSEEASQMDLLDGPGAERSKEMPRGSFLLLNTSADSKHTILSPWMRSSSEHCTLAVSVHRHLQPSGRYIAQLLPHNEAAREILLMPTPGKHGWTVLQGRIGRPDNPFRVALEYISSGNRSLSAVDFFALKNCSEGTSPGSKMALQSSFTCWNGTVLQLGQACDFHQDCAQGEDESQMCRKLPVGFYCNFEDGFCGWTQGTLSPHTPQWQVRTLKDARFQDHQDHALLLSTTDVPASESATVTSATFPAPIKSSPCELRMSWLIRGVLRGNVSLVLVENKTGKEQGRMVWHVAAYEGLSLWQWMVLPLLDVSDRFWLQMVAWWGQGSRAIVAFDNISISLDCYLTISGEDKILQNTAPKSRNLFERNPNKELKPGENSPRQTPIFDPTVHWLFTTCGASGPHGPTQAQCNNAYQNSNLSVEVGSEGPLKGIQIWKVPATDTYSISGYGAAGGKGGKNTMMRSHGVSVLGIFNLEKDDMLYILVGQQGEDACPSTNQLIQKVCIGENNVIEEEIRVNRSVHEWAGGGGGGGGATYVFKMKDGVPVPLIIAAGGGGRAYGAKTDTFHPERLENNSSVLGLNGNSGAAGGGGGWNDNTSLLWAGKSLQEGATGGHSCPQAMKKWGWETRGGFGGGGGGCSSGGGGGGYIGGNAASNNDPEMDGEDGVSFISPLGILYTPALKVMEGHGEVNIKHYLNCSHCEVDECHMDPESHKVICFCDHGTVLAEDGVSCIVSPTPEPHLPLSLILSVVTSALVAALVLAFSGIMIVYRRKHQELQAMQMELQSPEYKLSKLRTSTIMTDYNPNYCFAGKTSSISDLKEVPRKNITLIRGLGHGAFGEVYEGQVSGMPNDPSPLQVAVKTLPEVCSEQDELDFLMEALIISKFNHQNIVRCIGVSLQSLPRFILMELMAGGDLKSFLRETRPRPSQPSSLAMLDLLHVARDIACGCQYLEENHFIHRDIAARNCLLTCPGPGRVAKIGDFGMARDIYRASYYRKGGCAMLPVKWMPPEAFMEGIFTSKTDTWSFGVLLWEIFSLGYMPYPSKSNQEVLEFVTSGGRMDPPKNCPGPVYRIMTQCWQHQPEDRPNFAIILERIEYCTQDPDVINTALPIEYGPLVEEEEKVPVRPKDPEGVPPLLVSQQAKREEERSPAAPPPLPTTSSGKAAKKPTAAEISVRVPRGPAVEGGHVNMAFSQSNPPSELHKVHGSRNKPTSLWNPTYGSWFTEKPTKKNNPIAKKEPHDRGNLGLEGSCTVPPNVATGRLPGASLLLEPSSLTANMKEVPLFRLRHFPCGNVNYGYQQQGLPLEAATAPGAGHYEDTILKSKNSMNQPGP
Chain of ALK [WT] (Q9UM73 19-1620): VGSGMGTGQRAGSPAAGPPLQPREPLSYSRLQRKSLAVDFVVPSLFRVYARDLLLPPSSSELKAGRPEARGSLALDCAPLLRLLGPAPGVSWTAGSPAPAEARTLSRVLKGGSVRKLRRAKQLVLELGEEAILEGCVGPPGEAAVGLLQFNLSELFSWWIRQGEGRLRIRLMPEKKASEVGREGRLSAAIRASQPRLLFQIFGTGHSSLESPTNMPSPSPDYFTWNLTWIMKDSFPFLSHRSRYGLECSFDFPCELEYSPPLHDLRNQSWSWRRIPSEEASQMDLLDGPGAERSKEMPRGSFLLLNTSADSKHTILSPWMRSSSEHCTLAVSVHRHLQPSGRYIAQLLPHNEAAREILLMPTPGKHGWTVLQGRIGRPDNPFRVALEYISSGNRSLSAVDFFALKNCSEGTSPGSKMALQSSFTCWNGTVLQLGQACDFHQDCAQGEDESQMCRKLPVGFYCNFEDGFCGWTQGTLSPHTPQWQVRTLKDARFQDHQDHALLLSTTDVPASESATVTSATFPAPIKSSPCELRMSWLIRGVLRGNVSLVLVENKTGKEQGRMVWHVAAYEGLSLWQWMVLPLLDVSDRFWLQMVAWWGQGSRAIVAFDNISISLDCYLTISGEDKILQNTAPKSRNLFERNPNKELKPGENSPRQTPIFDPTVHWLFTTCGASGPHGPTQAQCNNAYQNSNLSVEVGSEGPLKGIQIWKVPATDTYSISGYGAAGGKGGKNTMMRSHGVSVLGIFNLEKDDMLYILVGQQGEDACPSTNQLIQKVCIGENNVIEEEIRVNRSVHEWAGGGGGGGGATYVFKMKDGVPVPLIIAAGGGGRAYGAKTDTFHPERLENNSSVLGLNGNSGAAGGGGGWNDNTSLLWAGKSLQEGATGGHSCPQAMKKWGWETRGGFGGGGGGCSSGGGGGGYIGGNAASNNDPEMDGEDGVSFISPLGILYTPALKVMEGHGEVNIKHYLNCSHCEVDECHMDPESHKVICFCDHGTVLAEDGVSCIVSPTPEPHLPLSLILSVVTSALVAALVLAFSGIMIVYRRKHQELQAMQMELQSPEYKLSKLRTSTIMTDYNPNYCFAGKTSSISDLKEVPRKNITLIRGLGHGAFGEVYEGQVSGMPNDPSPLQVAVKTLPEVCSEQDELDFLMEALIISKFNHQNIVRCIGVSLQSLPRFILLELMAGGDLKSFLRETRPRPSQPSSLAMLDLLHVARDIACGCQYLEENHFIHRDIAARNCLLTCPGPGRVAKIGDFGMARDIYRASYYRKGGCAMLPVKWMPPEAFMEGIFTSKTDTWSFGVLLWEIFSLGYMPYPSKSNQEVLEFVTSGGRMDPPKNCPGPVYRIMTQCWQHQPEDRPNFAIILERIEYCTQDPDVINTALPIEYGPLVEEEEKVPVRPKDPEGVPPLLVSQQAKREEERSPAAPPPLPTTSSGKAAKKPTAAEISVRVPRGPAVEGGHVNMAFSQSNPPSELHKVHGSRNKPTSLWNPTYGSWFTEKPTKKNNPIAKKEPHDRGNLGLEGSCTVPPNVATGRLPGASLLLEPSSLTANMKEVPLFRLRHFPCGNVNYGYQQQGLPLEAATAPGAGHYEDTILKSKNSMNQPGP
T1 sequence (Q9UM73 whole entry, change not shown, the tested form may be a part): as the sequence (Q9UM73 whole entry L1196M, the tested form may be a part) above, with M1196L counted along it
Chain of ALK [L1196M] (Q9UM73 19-1620 L1196M): as the sequence (Q9UM73 19-1620) above, with L1178M counted along it

Compound | IC50 (ALK [WT]) [nM] | IC50 (ALK [L1196M]) [nM] | microsomal CLint at 1 μM [5] [µL/min/mg] | half-life at 1 μM [5] [min] | microsomal CLint at 1 μM [6] [µL/min/mg] | half-life at 1 μM [6] [min] | IC50 (BaF3 parental) [nM] | GI50 (BaF3 [EML4-ALK] [1]) [nM] | Selectivity parental/ALK (BaF3 [EML4-ALK] [2]) | GI50 (ALK[L1196M] (Ba/F3) [3]) [nM] | Selectivity parental/ALK[L1196M] (ALK[L1196M] (Ba/F3) [4])
COc1cc(CCN)ccc1Nc1ncc(Cl)c(Nc2ccccc2P(C)(C)=O)n1 [Example 2, (2-((2-((4-(2-aminoethyl)-2-methoxyphenyl)amino)-5-chloropyrimidin-4-yl)amino)phenyl)dimethylphosphine oxide] | ≤ 2 | 2 to 5 | 8.7 | 160 | 8.4 | 165 | ≥ 1000 | 100 to 200 | <50 | 200 to 1000 | <50
COc1cc(CCN2CCCCC2)ccc1Nc1ncc(Cl)c(Nc2ccccc2P(C)(C)=O)n1 [Example 4, (2-((5-chloro-2-((2-methoxy-4-(2-(piperidin-1-yl)ethyl)phenyl)amino)pyrimidin-4-yl)amino)phenyl)dimethylphosphine oxide] | ≤ 2 | 2 to 5 | 26.7 | 51.9 | 34.7 | 39.9 | ≥ 1000 | < 25 | 200 to 500 | 50 to 100 | <50
COc1cc(CCN2CCOCC2)ccc1Nc1ncc(Cl)c(Nc2ccccc2P(C)(C)=O)n1 [Example 6, (2-((5-chloro-2-((2-methoxy-4-(2-morpholinoethyl)phenyl)amino)pyrimidin-4-yl)amino)phenyl)dimethylphosphine oxide] | 2 to 5 | 2 to 5 | 29.1 | 47.6 | 85.1 | 16.3 | ≥ 1000 | < 25 | 200 to 500 | 100 to 200 | <50
COc1cc(C(C)N)ccc1Nc1ncc(Cl)c(Nc2ccccc2P(C)(C)=O)n1 (centres unmarked) [Example 7, (2-((2-((4-(1-aminoethyl)-2-methoxyphenyl)amino)-5-chloropyrimidin-4-yl)amino)phenyl)dimethylphosphine oxide] | 2 to 5 | 2 to 5 | 5.7 | 244 | 4.1 | 340 | ≥ 1000 | 50 to 100 | <50 | 200 to 1000 | <50

Second part, led by results:

IC50 (ALK [WT]) [nM] | IC50 (ALK [L1196M]) [nM] | microsomal CLint at 1 μM [5] [µL/min/mg] | half-life at 1 μM [5] [min] | microsomal CLint at 1 μM [6] [µL/min/mg] | half-life at 1 μM [6] [min] | Compound | IC50 (BaF3 parental) [nM] | GI50 (BaF3 [EML4-ALK] [1]) [nM] | Selectivity parental/ALK (BaF3 [EML4-ALK] [2]) | GI50 (ALK[L1196M] (Ba/F3) [3]) [nM] | Selectivity parental/ALK[L1196M] (ALK[L1196M] (Ba/F3) [4])
5 to 10 | 5 to 10 | 10.6 | 131 | 43.4 | 31.9 | COc1cc(CN(C)C)ccc1Nc1ncc(Cl)c(Nc2ccccc2P(C)(C)=O)n1 [Example 1, (2-((5-chloro-2-((4-((dimethylamino)methyl)-2-methoxyphenyl)amino)pyrimidin-4-yl)amino)phenyl)dimethylphosphine oxide] | ≥ 1000 | 50 to 100 | <50 | 100 to 200 | <50
≤ 2 | 2 to 5 | 15.4 | 90.1 | 50.4 | 27.5 | COc1cc(CCN(C)C)ccc1Nc1ncc(Cl)c(Nc2ccccc2P(C)(C)=O)n1 [Example 3, (2-((5-chloro-2-((4-(2-(dimethylamino)ethyl)-2-methoxyphenyl)amino)pyrimidin-4-yl)amino)phenyl)dimethylphosphine oxide] | ≥ 1000 | 25 to 50 | 50 to 100 | 100 to 200 | <50
≤ 2 | ≤ 2 | 17.3 | 80 | 35.9 | 38.6 | COc1cc(CCN2CCN(C)CC2)ccc1Nc1ncc(Cl)c(Nc2ccccc2P(C)(C)=O)n1 [Example 5, (2-((5-chloro-2-((2-methoxy-4-(2-(4-methylpiperazin-1-yl)ethyl)phenyl)amino)pyrimidin-4-yl)amino)phenyl)dimethylphosphine oxide] | ≥ 1000 | < 25 | 200 to 500 | 25 to 50 | 100 to 200
